Each structure is given as a SMILES string. A value given as a limit tells only on which side of the number the result lay.

For this test, the target named is wild type RET (Homo sapiens (Human), UniProt P07949). Description: RET Wild Type Assay at KM (Caliper electrophoretic mobility shift). The class given is biochemical. The settings on record: 25 μM ATP, 25° C., 120 minutes.
wild type RET, sequence (P07949 29-1114): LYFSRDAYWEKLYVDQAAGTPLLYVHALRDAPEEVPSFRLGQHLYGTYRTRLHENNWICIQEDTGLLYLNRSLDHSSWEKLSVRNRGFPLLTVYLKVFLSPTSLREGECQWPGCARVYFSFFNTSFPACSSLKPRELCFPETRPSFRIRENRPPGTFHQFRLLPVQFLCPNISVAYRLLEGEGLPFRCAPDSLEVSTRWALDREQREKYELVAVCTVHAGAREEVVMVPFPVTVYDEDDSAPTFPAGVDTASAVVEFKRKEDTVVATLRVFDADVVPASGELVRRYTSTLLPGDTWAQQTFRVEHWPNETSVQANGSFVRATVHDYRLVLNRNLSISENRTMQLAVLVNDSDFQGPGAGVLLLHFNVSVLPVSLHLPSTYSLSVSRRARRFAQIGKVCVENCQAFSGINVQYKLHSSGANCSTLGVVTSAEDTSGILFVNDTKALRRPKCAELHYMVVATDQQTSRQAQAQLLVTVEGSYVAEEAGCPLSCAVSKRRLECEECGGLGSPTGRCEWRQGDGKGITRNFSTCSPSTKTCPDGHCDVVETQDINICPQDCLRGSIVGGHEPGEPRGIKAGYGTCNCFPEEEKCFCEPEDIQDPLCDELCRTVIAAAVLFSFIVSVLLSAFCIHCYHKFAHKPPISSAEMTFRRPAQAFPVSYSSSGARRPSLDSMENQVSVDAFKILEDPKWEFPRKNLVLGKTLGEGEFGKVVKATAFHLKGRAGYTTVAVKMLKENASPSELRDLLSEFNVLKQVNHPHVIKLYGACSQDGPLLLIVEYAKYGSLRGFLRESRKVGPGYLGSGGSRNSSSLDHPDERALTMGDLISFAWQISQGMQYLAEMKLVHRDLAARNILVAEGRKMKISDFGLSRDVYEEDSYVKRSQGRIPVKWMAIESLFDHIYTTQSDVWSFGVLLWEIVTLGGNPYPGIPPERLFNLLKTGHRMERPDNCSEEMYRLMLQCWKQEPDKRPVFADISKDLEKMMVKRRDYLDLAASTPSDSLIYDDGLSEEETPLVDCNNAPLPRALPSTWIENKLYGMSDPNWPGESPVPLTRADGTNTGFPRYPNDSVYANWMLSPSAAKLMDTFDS
In general, IC50 refers to the concentration needed to halve the response being measured. As to `Cc1cc(Nc2cc(C)[nH]n2)nc(-c2ccc(C(=O)NCc3ccoc3)nc2)n1` [Compound 1], the IC50 lay in the range of 0.01 to 0.1 µM.
Then `Cc1cc(Nc2cc(C)[nH]n2)nc(-c2ccc(C(=O)NCc3cncs3)nc2)n1` [Compound 3], with over 0.1 µM.
The value for `Cc1cc(Nc2cc(C)[nH]n2)nc(-c2ccc(C(=O)N3Cc4ccccc4C3)nc2)n1` [Compound 4] was 0.01 to 0.1 µM; that for `Cc1ccc(CNC(=O)c2ccc(-c3nc(C)cc(Nc4cc(C)[nH]n4)n3)cn2)cc1` [Compound 5] was 0.01 to 0.1 µM; that for `Cc1cc(Nc2cc(C)[nH]n2)nc(-c2ccc(C(=O)N[C@H](C)c3ccccc3)nc2)n1` [Compound 6] was over 0.1 µM.
As for `Cc1ccc(CNC(=O)c2ccc(-c3nc(C)cc(Nc4cc(C)[nH]n4)n3)cn2)nc1` [Compound 7], the IC50 lay in the range of 0.01 to 0.1 µM.
On to `Cc1cc(Nc2cc(C)[nH]n2)nc(-c2ccc(C(=O)NCc3cccc(F)c3)nc2)n1` [Compound 8], for which the IC50 is over 0.1 µM.
The value for `Cc1cc(Nc2cc(C)[nH]n2)nc(-c2ccc(C(=O)NCc3ccc(F)cc3)nc2)n1` [Compound 9] was 0.01 to 0.1 µM.
Take `Cc1cc(Nc2cc(C)[nH]n2)nc(-c2ccc(C(=O)NCc3ccc(Cl)cc3)nc2)n1` [Compound 11]: the IC50 lay in the range of 0.01 to 0.1 µM.
The value for `CCOc1ccc(CNC(=O)c2ncc(-c3nc(C)cc(Nc4cc(C)[nH]n4)n3)cc2C)cc1` [Compound 13] was 0.01 to 0.1 µM.
Then `CCOc1ccc([C@@H](C)NC(=O)c2ncc(-c3nc(C)cc(Nc4cc(C)[nH]n4)n3)cc2C)cc1` [Compound 16], with over 0.1 µM; and `CCOc1ccc([C@H](C)NC(=O)c2ncc(-c3nc(C)cc(Nc4cc(C)[nH]n4)n3)cc2C)cc1` [Compound 17], with over 0.1 µM; and `Cc1cnn(-c2ccc(CNC(=O)c3ccc(-c4nc(C)cc(Nc5cc(C)[nH]n5)n4)cn3)cn2)c1` [Compound 18], with under 0.01 µM.
The value for `Cc1cc(Nc2cc(C)[nH]n2)nc(-c2cnc(C(=O)NCc3ccc(-n4cccn4)nc3)c(C)c2)n1` [Compound 19] was under 0.01 µM; that for `Cc1cc(Nc2cc(C)[nH]n2)nc(-c2ccc(C(=O)NCc3cnc(-n4cc(F)cn4)cn3)nc2)n1` [Compound 21] was under 0.01 µM.
Consider `Cc1cc(Nc2cc(C)[nH]n2)nc(-c2ccc(C(=O)NCc3ccc(-n4cc(C#N)cn4)nc3)nc2)n1` [Compound 22], for which the IC50 lay in the range of 0.01 to 0.1 µM.
For `Cc1cc(Nc2cc(C)[nH]n2)nc(-c2cnc(C(=O)N[C@@H](C)c3ccc(-n4cccn4)nc3)c(C)c2)n1` [Compound 23], the IC50 is under 0.01 µM.
The value for `Cc1cc(Nc2cc(C)[nH]n2)nc(-c2ccc(C(=O)NCc3ccc(-n4nc(C)cc4C)nc3)nc2)n1` [Compound 24] was under 0.01 µM; that for `Cc1cc(Nc2cc(C)[nH]n2)nc(-c2ccc(C(=O)N[C@@H](C)c3ccc(-n4cc(F)cn4)nc3)nc2)n1` [Compound 25, (S)—N-(1-(6-(4-fluoro-1H-pyrazol-1-yl)pyridin-3-yl)ethyl)-5-(4-methyl-6-((5-methyl-1H-pyrazol-3-yl)amino)pyrimidin-2-yl)picolinamide] was under 0.01 µM; that for `Cc1cc(Nc2cc(C)[nH]n2)nc(-c2ccc(C(=O)NCc3ccc(-n4ccc(C5CC5)n4)nc3)nc2)n1` [Compound 26] was under 0.01 µM.
Then `Cc1cc(Nc2cc(C)[nH]n2)nc(-c2ccc(C(=O)NCc3ccc(-n4cc(C5CC5)cn4)nc3)nc2)n1` [Compound 27], with 0.01 to 0.1 µM; and `Cc1cc(Nc2cc(C)[nH]n2)nc(-c2ccc(C(=O)NCc3ccc(-n4cc(CCO)cn4)nc3)nc2)n1` [Compound 28], with 0.01 to 0.1 µM; and `Cc1cc(Nc2cc(C)[nH]n2)nc(-c2cnc(C(=O)N[C@@H](C)c3ccc(-n4cc(F)cn4)nc3)c(C)c2)n1` [Compound 29, (S)—N-(1-(6-(4-fluoro-1H-pyrazol-1-yl)pyridin-3-yl)ethyl)-3-methyl-5-(4-methyl-6-((5-methyl-1H-pyrazol-3-yl)amino)pyrimidin-2-yl)picolinamide], with under 0.01 µM.
Then `Cc1cc(Nc2cc(C)[nH]n2)nc(-c2cnc(C(=O)N[C@@H](C)c3ccc(-n4cc(F)cn4)nc3)c(F)c2)n1` [Compound 30, (S)-3-fluoro-N-(1-(6-(4-fluoro-1H-pyrazol-1-yl)pyridin-3-yl)ethyl)-5-(4-methyl-6-((5-methyl-1H-pyrazol-3-yl)amino)pyrimidin-2-yl)picolinamide], with under 0.01 µM; and `Cc1cc(Nc2cc(C)[nH]n2)nc(-c2ccc(C(=O)NCc3ccc(-n4cc(C(F)F)cn4)nc3)nc2)n1` [Compound 31], with 0.01 to 0.1 µM; and `Cc1cc(Nc2cc(C)[nH]n2)nc(-c2ccc(C(=O)NCc3ccc(-n4cc(C(F)F)c(C)n4)nc3)nc2)n1` [Compound 32], with 0.01 to 0.1 µM.
Consider `CC[C@@H](NC(=O)c1ccc(-c2nc(C)cc(Nc3cc(C)[nH]n3)n2)cn1)c1ccc(-n2cc(F)cn2)nc1` [Compound 34], for which the concentration for half-maximal inhibition (IC50) was under 0.01 µM.

The values above are taken from patent US10202365B2, “2-(pyridin-3-yl)-pyrimidine derivatives as RET inhibitors” (BLUEPRINT MEDICINES CORPORATION, priority 2015, dated 2019).
